Where two headings read alike, the source gives them in different places.

The test system of data set [1] is K562 cells (Pgp negative). Description: Functional efflux assay (DiOC2), K562. It counts as cell-based, human. Conditions: K562, flow cytometry. The procedure:
The cells were washed with PBS and resuspended in medium. An aliquot was taken for cytometric quantitation of baseline dye uptake. The remaining samples were incubated again either with or without CSA and resuspended in fresh, chilled medium in order to assess dye efflux also by flow cytometric analysis. Functional expression analyses of Pgp were performed on a BD FACSCalibur flow cytometer (Franklin Lakes, N.J.). Cellular amonafide content was measured on the Cytopeia Influx flow cytometer (Seattle, Wash.). Data analysis was performed using the Dako Cytomation Summit software, version 4.0 (Fort Collins, Colo.). […] Differential Pgp staining of anti-Pgp treated cells was compared to that of control cells counted with the same number of gated events. […] These analyses were performed using the NCSS 2007 software (Kaysville, Utah). This approach addresses the maximum difference between two empirical distribution functions.
(In general: A flow cytometer gives signals particle by particle.)

Data set [2] relates to secondary AML patient sample cells. The data set can be described thus: Drug transport (CsA modulation of uptake) in secondary AML patient cells. It counts as cell-based, human. The settings on record: for increase of uptake by Cyclosporin A, mean value: 22 secondary AML samples; for CsA Modulation of Uptake: D-value; for number of patient samples with uptake increased by ≧10% by Cyclosporin A: of 22 secondary AML samples.
Experimental: The expression and function of Pgp, MRP-1 and BCRP was measured in cells collected from patients with secondary AML. Pgp, MRP-1 and BCRP expression was measured by flow cytometry with the MRK16, MRPm6 and BXP21 antibodies, and function by modulation of uptake of the fluorescent substrates DiOC2(3), rhodamine-123 and pheophorbide A by PSC-833, MK571 and FTC, respectively, all measured by the Kolmogorov-Smirnov statistic, generating D-values.

Data set [3] deals with IGROV1-T8, a cell line selected for resistance to topotecan (increased BCRP expression). Conditions: T8 resistant line vs IGROV1.
Experimental: (§1) The T8 resistant cell line has been characterized with over-expression of the multidrug resistant protein BCRP (breast cancer resistance protein). Topotecan, which is a known substrate for BCRP, was used as a control.
(§2) Sulforhodamine-B (SRB) assay is performed to assess cell survival. SRB is a water-soluble dye that binds to the basic amino acids of the cellular proteins. Thus, colorimetric measurement of the bound dye provides an estimate of the total protein mass that is related to the cell number. The color can then be quantified using a simple colorimetric assay. The results can be read on a multiwell scanning spectrophotometer (ELISA reader).
Data set [4] has the same test system. The data set can be described thus: cells. Conditions: Homo sapiens, T8.
Experimental: as §1, §2
Data set [5] deals with IGROV1 (human ovarian) cell line. The data set can be described thus: SRB cell proliferation assay, IGROV1. It counts as cell-based. The settings on record: read-out: IC50.
Experimental: as §1, §2
The target of data set [6] is T1, Pgp (Homo sapiens, UniProt P08183). Conditions: human, Caco-2.
Text: (§3) Both the Caco-2 and MDR1-MDCK cells were used for this model.
The target in data set [7] is T1, Pgp. The settings on record: human, MDCK-MDR1.
Text: MDR1-MDCK are Madin Darby Canine Kidney cells transfected with the human multi-drug resistance gene. Confluent monolayers made from these cells can be used to access a test compound's potential role as a P-gp substrate. The assay set up is similar to the CaCo-2 assay.
as §3
Data set [8] concerns HL60/VCR (HL60/MDR), a cell line selected for resistance to vincristine. Description: WST-1 cell proliferation assay, HL60/VCR. Conditions: for Fold Change in IC50: HL60/MDR vs HL60; for IC50: Homo sapiens, HL60/VCR, read-out: IC50 HL60/MDR. On the technique in general: Formazan colour is commonly taken as a measure of viable cells.
Experimental: (§4) The HL60NCR resistant cell line has been characterized with over-expression of the multidrug resistant protein (MDR; p-glycoprotein). The over-expression ratio (level of MDR in resistant cell line over level of MDR in the parental cell line) is 8 fold with a 10 fold increase in pgp function. Pgp surface expression was measured by flow cytometry with the MRK16 antibody and Pgp function with the generic substrate, Rh123.
(§5) WST-1 is a water-soluble tetrazolium salt that can be used for cell proliferation or cell viability assays. The rate of WST-1 cleavage by mitochondrial dehydrogenases correlates with the number of viable cells in the culture. WST-1 is added directly to the cells ( 1/10th of the culture volume) and absorbance at 450 nm can be measured using an ELISA plate reader following a short incubation at 37° C.
The test system of data set [9] is HL60 (human promyelocytic leukemia) cells. The data set can be described thus: WST-1 cell proliferation assay, HL60. The data set is classed as cell-based.
Experimental: as §4, §5
Data set [10] relates to pretreatment secondary AML patient cells. Description: Amonafide and daunorubicin efflux in cryopreserved cells of patients treated with amonafide+cytarabine. The data set is classed as cell-based, human. The settings on record: cells from 15 patients treated with amonafide+cytarabine. The method, then:
Cryopreserved cells were tested for viability and samples with viabilities less than 40% were considered inevaluable and discarded.
To measure drug uptake, the substrates were incubated with cells in medium containing each drug alone, or in combination with the modulator at the desired final concentrations. Cells were then washed and resuspended in PBS, and placed on ice. Drug-associated fluorescence was measured by flow cytometry using a FacScan flow cytometer (Becton Dickinson Immunocytometry Systems, San Jose, Calif.) equipped in standard fashion with an Argon laser for 488 nm excitation and a 585/42 band-pass filter (FL2) or a 670 long-pass (FL3) filter for emission collection. Data were analyzed with WinList software (Verity Software House, Topsham, Me.).

Data set [11] relates to 8226/MR20, a cell line selected for resistance to mitoxantrone (BCRP). Description: WST-1 cell proliferation assay, 8226/MR20. Conditions: 8226/MR20 vs 8226.
Experimental: The 8226/MR20 resistant cell line has been characterized with over-expression of the multidrug resistant protein (BCRP).
BCRP surface expression was measured by flow cytometry with the BXP21 antibody.
as §5
Setting [12] is: HL-60, wild-type HL60, WST-1, read-out: IC50 HL60.

T1 sequence (P08183 whole entry): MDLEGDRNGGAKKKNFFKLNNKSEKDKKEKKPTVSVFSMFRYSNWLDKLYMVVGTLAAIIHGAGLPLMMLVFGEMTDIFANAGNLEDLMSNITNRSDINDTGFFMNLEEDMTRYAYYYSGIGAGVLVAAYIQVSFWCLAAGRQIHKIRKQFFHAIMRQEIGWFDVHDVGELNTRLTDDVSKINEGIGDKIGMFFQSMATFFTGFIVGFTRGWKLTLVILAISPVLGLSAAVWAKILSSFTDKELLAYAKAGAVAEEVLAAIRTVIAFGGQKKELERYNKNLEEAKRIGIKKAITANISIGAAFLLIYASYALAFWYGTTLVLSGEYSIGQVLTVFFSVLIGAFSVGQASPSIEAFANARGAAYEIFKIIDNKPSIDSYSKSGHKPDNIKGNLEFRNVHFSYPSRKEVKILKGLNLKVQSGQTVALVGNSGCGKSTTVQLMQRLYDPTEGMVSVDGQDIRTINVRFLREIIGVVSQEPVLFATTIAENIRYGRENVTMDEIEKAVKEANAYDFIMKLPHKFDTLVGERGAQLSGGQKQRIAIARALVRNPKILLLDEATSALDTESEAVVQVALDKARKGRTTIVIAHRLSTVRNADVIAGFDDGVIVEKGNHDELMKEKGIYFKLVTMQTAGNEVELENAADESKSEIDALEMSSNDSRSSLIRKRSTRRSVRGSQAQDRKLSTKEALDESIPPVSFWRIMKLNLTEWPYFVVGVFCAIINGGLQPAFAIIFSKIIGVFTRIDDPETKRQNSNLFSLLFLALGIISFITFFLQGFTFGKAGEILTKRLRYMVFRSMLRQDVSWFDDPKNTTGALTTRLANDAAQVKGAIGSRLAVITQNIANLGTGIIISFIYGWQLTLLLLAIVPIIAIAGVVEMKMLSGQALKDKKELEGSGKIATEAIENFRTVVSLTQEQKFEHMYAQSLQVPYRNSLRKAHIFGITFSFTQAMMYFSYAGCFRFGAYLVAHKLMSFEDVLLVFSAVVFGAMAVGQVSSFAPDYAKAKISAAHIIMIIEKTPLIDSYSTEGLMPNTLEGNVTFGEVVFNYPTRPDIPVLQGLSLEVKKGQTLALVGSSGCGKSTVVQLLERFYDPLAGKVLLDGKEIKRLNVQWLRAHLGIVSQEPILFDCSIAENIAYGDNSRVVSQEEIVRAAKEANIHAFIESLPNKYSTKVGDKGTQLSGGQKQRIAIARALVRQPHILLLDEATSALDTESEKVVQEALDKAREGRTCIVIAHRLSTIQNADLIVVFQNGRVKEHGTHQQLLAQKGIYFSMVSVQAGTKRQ

With `CCN1/C(=C/C=C/c2oc3ccccc3[n+]2CC)Oc2ccccc21.[I-]` [DiOC2], the DiOC2 accumulation result in data set [1] is reported as “accumulated in Pgp negative K562 cells”.

With `CC(=O)[C@]1(O)Cc2c(O)c3c(c(O)c2[C@@H](O[C@H]2C[C@H](N)[C@H](O)[C@H](C)O2)C1)C(=O)c1ccccc1C3=O` [Idarubicin, idarubicin], the “increase of uptake by Cyclosporin A, mean value” (shortened to “increase of uptake”) in data set [2] is reported as 7%. In addition, the “CsA Modulation of Uptake” value in [2] (Pt 1) worked out at 0; in [2] (Pt 2), 0.23; in data set [2] (Pt 3) it was 0.22; in data set [2] (Pt 4) it was 0.17; in data set [2] (Pt 5) it was 0; in data set [2] (Pt 6), 0.21. Besides, the “CsA Modulation of Uptake” value in data set [2] (Pt 7) is reported as 0.21; in data set [2] (Pt 8), 0.16; in data set [2] (Pt 9), 0.18; in [2] (Pt 10), 0.02; in data set [2] (Pt 11), 0.05; in [2] (Pt 12), 0.08. The “CsA Modulation of Uptake” value in data set [2] (Pt 13) came to 0.06; in data set [2] (Pt 14), 0.28; in [2] (Pt 15), 0.16; in [2] (Pt 16), 0.03; in [2] (Pt 17) it was 0; in data set [2] (Pt 18) it was 0. Further, the “CsA Modulation of Uptake” value was found to be 0.17 in data set [2] (Pt 19), 0.23 in [2] (Pt 20), 0.19 in data set [2] (Pt 21) and 0.31 in data set [2] (Pt 22). Also, in data set [2], the “number of patient samples with uptake increased by ≧10% by Cyclosporin A” value was found to be 12 patient samples.

As for `CC[C@@]1(O)C(=O)OCc2c1cc1n(c2=O)Cc2cc3c(CN(C)C)c(O)ccc3nc2-1` [TPT, Topotecan], in data set [3], the “resistance of T8 line to Topotecan relative to Amonafide” value is reported as 10 fold. The IC50 in data set [4] (experiment (1)) worked out at 1100 nM; in [4] (experiment (2)) it was 1090 nM; in data set [5] (IGROV-1, IGROV1, experiment (1)), 36 nM; in data set [5] (IGROV-1, IGROV1, experiment (2)) it was 73.9 nM.

With `C[C@H]1O[C@@H](O[C@H]2[C@@H](O)C[C@H](O[C@H]3[C@@H](O)C[C@H](O[C@H]4CC[C@@]5(C)[C@H](CC[C@@H]6[C@@H]5C[C@@H](O)[C@]5(C)[C@@H](C7=CC(=O)OC7)CC[C@]65O)C4)O[C@@H]3C)O[C@@H]2C)C[C@H](O)[C@@H]1O` [Digoxin, digoxin], the “Digoxin Efflux (efflux/influx ratio), Caco-2” value in [6] amounted to 10.6 ± 1.4. The “Digoxin Efflux (efflux/influx ratio), MDR1-MDCK” value in [7] was 70 + 11.

As for `COc1cccc2c1C(=O)c1c(O)c3c(c(O)c1C2=O)C[C@@](O)(C(=O)CO)C[C@@H]3O[C@H]1C[C@H](N)[C@H](O)[C@H](C)O1` [Doxorubicin, doxorubicin], in data set [8], the “Fold Change in IC50” value was determined as 4.87 and the IC50 was 161 nM. In addition, the IC50 in data set [9] (setting [12]) is 33 nM.

As to `COc1cccc2c1C(=O)c1c(O)c3c(c(O)c1C2=O)C[C@@](O)(C(C)=O)C[C@@H]3O[C@H]1C[C@H](N)[C@H](O)[C@H](C)O1` [Daunorubicin, daunorubicin], the “increase of uptake” value in data set [2] turned out to be 19.7%. Also, the “CsA Modulation of Uptake” value is listed as 0.2 in data set [2] (Pt 1); 0.14 in [2] (Pt 2); 0.27 in data set [2] (Pt 3); 0.23 in [2] (Pt 4); 0 in [2] (Pt 5); 0.41 in [2] (Pt 6). The “CsA Modulation of Uptake” value in [2] (Pt 7) was found to be 0.47; in data set [2] (Pt 8), 0.31; in data set [2] (Pt 9), 0.08; in data set [2] (Pt 10), 0.08; in [2] (Pt 11) it was 0.03; in [2] (Pt 12) it was 0.37. Further, the “CsA Modulation of Uptake” value in data set [2] (Pt 13) is listed as 0.16; in [2] (Pt 14) it was 0.29; in data set [2] (Pt 15) it was 0.07; in [2] (Pt 16) it was 0.08; in [2] (Pt 17), 0.24; in data set [2] (Pt 18) it was 0.03. Besides, the “CsA Modulation of Uptake” value in [2] (Pt 19) is 0.04; in data set [2] (Pt 20) it was 0.35; in data set [2] (Pt 21), 0.12; in [2] (Pt 22), 0.43. Besides, the “number of patient samples with uptake increased by ≧10% by Cyclosporin A” value in [2] is 16 patient samples. Moreover, the “drug efflux in relation to clinical response (CR vs non-CR)” value in data set [10] is reported as “negatively correlated with response”. For the same compound, the “loss of potency in the BCRP line” value in data set [11] is given as “½”. Besides, the “loss of potency in the Pgp+ line” value in [8] (HL60/VCR vs HL60) is listed as 2 log units. Also, the IC50 stood at 92 nM in data set [8] and 15 nM in [9] (HL-60, read-out: IC50 HL60).

Take `O=C1c2c(O)ccc(O)c2C(=O)c2c(NCCNCCO)ccc(NCCNCCO)c21` [Mitoxantrone, mitoxantrone]: in [8], the “Fold Change in IC50” value is given as 390.7 and the IC50 is 3110 nM. The IC50 in data set [9] (setting [12]) worked out at 8 nM.

Regarding amonafide L-malate, the “increase of uptake” value in [2] is given as −2.5%. Further, the “CsA Modulation of Uptake” value in data set [2] (Pt 1) is given as 0; in data set [2] (Pt 2) it was 0.09; in data set [2] (Pt 3), 0; in [2] (Pt 4) it was 0.02; in [2] (Pt 5), 0; in data set [2] (Pt 6) it was 0.1. Also, the “CsA Modulation of Uptake” value in data set [2] (Pt 7) worked out at 0.31; in data set [2] (Pt 8) it was 0.07; in data set [2] (Pt 9), 0; in [2] (Pt 10), 0.18; in data set [2] (Pt 11), 0; in data set [2] (Pt 12) it was 0. In addition, the “CsA Modulation of Uptake” value is listed as 0.03 in data set [2] (Pt 13); 0.05 in data set [2] (Pt 14); 0 in data set [2] (Pt 15); 0 in [2] (Pt 16); 0 in data set [2] (Pt 17); 0 in [2] (Pt 18). The “CsA Modulation of Uptake” value in [2] (Pt 19) stood at 0; in [2] (Pt 20) it was 0.15; in [2] (Pt 21), 0.43; in data set [2] (Pt 22), 0. Further, the “substrate status for the MDR proteins expressed in AML cells” value in data set [2] (in relation to other topoisomerase 2 inhibitors) is given as “poor substrate”. Also, the “number of patient samples with uptake increased by ≧10% by Cyclosporin A” value in [2] was 5 patient samples.

Consider `CO[C@@H]1[C@H](N(C)C(=O)c2ccccc2)C[C@H]2O[C@]1(C)n1c3ccccc3c3c4c(c5c6ccccc6n2c5c31)C(=O)NC4` [PKC412], for which the “Digoxin Efflux (efflux/influx ratio), Caco-2” value in data set [6] was 1.8 ± 1.3. Further, the “Digoxin Efflux (efflux/influx ratio), MDR1-MDCK” value in data set [7] came to 6.4 ± 0.8.

Source of the values: patent US20100204263A1, “METHOD OF TREATING MULTIDRUG RESISTANT CANCERS” (priority 2007, published 2010).
